The nature of this data set: solvent given as SMILES.

Each structure is given as a SMILES string.

As for `O=C(c1ccncc1)c1ccc(-n2c3ccc(-n4c5ccccc5c5ccccc54)cc3c3cc(-n4c5ccccc5c5ccccc54)ccc32)cc1`, the absorption maximum by setting is: (in C1CCOC1) 341.83 nm; (in Cc1ccccc1) 360.08 nm; (in ClCCl) 341.83 nm.

Regarding `COc1ccc(/C=C/C2=CC(/C=C/c3ccc(OC)c4ccccc34)=[O+][B-](F)(F)O2)c2ccccc12`, the absorption maximum by setting is: (in CC#N) 530 nm; (in CC(C)=O) 532 nm; (in CCOC(C)=O) 524 nm; (in CCOCC) 516 nm; (in ClC(Cl)(Cl)Cl) 523 nm; (in ClCCl) 536 nm.

Consider `C#CCN1C(=O)/C(=C/c2cc(OC(C)C)ccc2OC(C)C)N=C1C`, for which the absorption maximum came out at 396 nm (in C1COCCO1); 395 nm (in CC#N); 394 nm (in CC(C)=O); 392 nm (in CCCCCC); 400 nm (in CCCCO); 400 nm (in CCCO). Moreover, the absorption maximum runs as follows: (in CCO) 399 nm; (in CCOC(C)=O) 393 nm; (in CN(C)C=O) 399 nm; (in CO) 398 nm; (in CS(C)=O) 401 nm.

As to `COc1cc(OC)c2c(c1)c1cc3oc(=O)cc(C)c3cc1c1cc(OC)cc(OC)c12`, the absorption maximum (in ClC(Cl)Cl) turned out to be 390 nm.

Where the note is “in ClCCl”, `CCc1cccc(CC)c1-c1c2ccccc2c(-c2c(CC)cccc2CC)c2cc3ccccc3cc12` displayed an absorption maximum of 495 nm.

Under “in C1CCOC1”, `N#Cc1c(N2CCCCC2)cc(-c2ccc3ccc4cccc5ccc2c3c45)c2c1-c1ccccc1C2` registered an absorption maximum of 346 nm.

In turn, `Cc1ccc2occ(CC(=O)NN)c2c1` displayed an absorption maximum (in C1CCOC1) of 292 nm; an absorption maximum (in CC#N) of 289 nm; an absorption maximum (in CC(C)=O) of 293 nm; an absorption maximum (in CCCCO) of 290 nm; an absorption maximum (in CCCO) of 281 nm; an absorption maximum (in CCO) of 283 nm. This compound also had an absorption maximum (in CCOC(C)=O) of 296 nm, an absorption maximum (in CN(C)C=O) of 313 nm, an absorption maximum (in CO) of 279 nm and an absorption maximum (in ClCCl) of 284 nm.

`CCn1c(-c2ccc(-c3ccc4c(c3)C3(c5ccccc5-c5ccccc53)c3ccccc3-4)cc2)c(-c2ccc3ccccc3c2)c(-c2ccc3ccccc3c2)c1-c1ccc(-c2ccc3c(c2)C2(c4ccccc4-c4ccccc42)c2ccccc2-3)cc1` had an absorption maximum (in CCOC(C)=O) of 326 nm.

For the setting “in ClCCl”, `CCCCCCOc1cc(N(CC)CC)ccc1/C=C/C(=C(C#N)C#N)c1ccc2c(c1)c1ccccc1n2CC` came in with an absorption maximum of 504 nm.

Consider `COc1ccc(-c2c3nc(c(-c4ccc(OC)cc4)c4ccc([nH]4)c(-c4ccc(OC)cc4)c4nc(c(-c5ccc(OC)cc5)c5ccc2[nH]5)C=C4N2CCOCC2)C=C3)cc1`, for which, where the note is “in CS(C)=O”, the absorption maximum came out at 660 nm.

Regarding `C1=C(c2ccccc2)C=C(c2ccccc2)/C1=C/c1ccc2ccc3cccc4ccc1c2c34`, the absorption maximum (in C1CCOC1) is 422 nm.

Consider `CCOC(=O)/C=C/c1ccc(N(C)C)cc1`, for which the absorption maximum was 353 nm (in C1CCCCC1); 362 nm (in C1CCOC1); 359 nm (in C1COCCO1); 363 nm (in CC#N); 363 nm (in CCCCCCCCO); 365 nm (in CCCCCCO). Also, the absorption maximum is, setting by setting: (in CCCCO) 363 nm; (in CCCO) 364 nm; (in CCO) 363 nm; (in CCOC(C)=O) 360 nm; (in CO) 362 nm; (in Cc1ccccc1) 362 nm. Besides, the absorption maximum was 373 nm (in O) and 363 nm (in c1ccccc1).

The compound `c1ccc(C2(c3ccccc3)c3ccccc3N(c3ccc(-c4nc([C@]56CC7CC(C[C@@H](C7)C5)C6)nc([C@]56C[C@H]7C[C@@H](C[C@H](C7)C5)C6)n4)cc3)c3ccccc32)cc1` yielded an absorption maximum (in Cc1ccccc1) of 367.02 nm.

Turning to `Brc1ccc(-c2pc3ccccc3s2)cc1` (stereo not given), for the setting “in CC#N”, the absorption maximum is listed as 337 nm.

Consider `COc1ccc(-c2nc3c([nH]2)C2=CC(=O)S[C@]2(C)[C@@]2(C)SC(=O)C=C32)cc1`, for which the absorption maximum (in CC#N) was 392 nm.

For the compound `c1ccc(-c2nc3ccccc3nc2-c2cc(-c3nc4ccccc4nc3-c3ccccc3)cc(-n3c4ccccc4c4ccccc43)c2)cc1`, the absorption maximum (in Cc1ccccc1) was 340 nm.

Consider `c1ccc(Nc2nc(Nc3ccccc3)nc(Nc3ccc4c5cccc6cccc(c7cccc3c74)c65)n2)cc1`, for which the absorption maximum by setting is: (in C1COCCO1) 444 nm; (in CC#N) 444 nm; (in CCCCOCCCC) 444 nm; (in CCOC(C)=O) 443 nm.

Turning to `Cc1ccc2c(c1)NC(=O)CC(=O)N2`, the absorption maximum (in CS(C)=O) is reported as 294 nm.

Consider `C#Cc1ccc2c(C)cc(=O)oc2c1`, for which, for the setting “in CCO”, the absorption maximum turned out to be 325 nm.

As to `N#Cc1c[nH]c2ccccc12`, the absorption maximum is, setting by setting: (in C1COCCO1) 277.3 nm; (in CC#N) 276.25 nm.

In turn, `CCCCC(CC)CN1C(=O)C2=C(c3ccc(-c4ccc(C5=C6C(C)=CC(C)=[N+]6[B-](F)(F)n6c(C)cc(C)c65)cc4)s3)N(CC(CC)CCCC)C(=O)C2=C1c1cccs1` (stereo not given) came in with an absorption maximum (in Cc1ccccc1) of 580 nm.

Regarding `O=C(O)c1ccccc1-c1nc(-c2ccccc2)c2ccccn12`, the absorption maximum (in CC#N) turned out to be 357 nm.

As for `Cc1ccc(-c2ccc(/C=C/c3ccc(F)cc3)cn2)nc1`, the absorption maximum (in CC#N) amounted to 334 nm.

As for `CC(C)(C)c1cc2ccc3cc(C(C)(C)C)cc4c3c2c(c1)c(=O)n1c4nc2c3cc(C(C)(C)C)cc4ccc5cc(C(C)(C)C)cc(c5c43)c21`, the absorption maximum by setting is: (in C1CCOC1) 395 nm; (in CC#N) 394 nm; (in CC(C)=O) 395 nm; (in CCCCCC) 399 nm; (in CCO) 395 nm; (in CCOC(C)=O) 393 nm. The compound also came in with an absorption maximum (in CO) of 382 nm; an absorption maximum (in CS(C)=O) of 394 nm; an absorption maximum (in Cc1ccc(C)cc1) of 396 nm; an absorption maximum (in ClC(Cl)(Cl)Cl) of 401 nm; an absorption maximum (in ClC(Cl)Cl) of 401 nm; an absorption maximum (in c1ccccc1) of 395 nm.

Compound `Cc1c(C(=O)c2ccccc2)c2ccc3cccc4c5cccc6ccc1c(c65)c2c34` came in with an absorption maximum (in ClCCl) of 391 nm.

Compound `F[B-]1(F)n2c(c(Sc3ccccc3)c3c2-c2ccccc2CC3)C=C2C(Sc3ccccc3)=C3CCc4ccccc4C3=[N+]21` returned an absorption maximum (in CC#N) of 640 nm.

Compound `CC1=CC(/C=C/c2ccc(OCCCN=[N+]=[N-])cc2)=[N+]2C1=C(c1ccc(N3CCCCC3)cc1)c1c(C)cc(C)n1[B-]2(F)F` showed an absorption maximum (in CO) of 570 nm.

Take `C(=C\c1ncc(-c2ccc(OCc3ccccc3)c(OCc3ccccc3)c2)o1)/c1cccc(N2CCN(c3ccccc3)CC2)c1`: under “in ClCCl”, the absorption maximum amounted to 355 nm.

Where the note is “in ClC(Cl)Cl”, `Cc1ccccc1Oc1ccc2c3c(cccc13)C(=O)N(CCO)C2=O` came in with an absorption maximum of 355 nm.

On to `CC(C)(C)c1ccc2c(c1)c1cc(C(C)(C)C)ccc1n2-c1ccc(-c2nc3cc(C#N)c(C#N)cc3nc2-c2ccc(-n3c4ccc(C(C)(C)C)cc4c4cc(C(C)(C)C)ccc43)cc2)cc1`, for which the absorption maximum (in Cc1ccccc1) is reported as 443 nm.

With `C=CCNc1ccc2ccc3oc4cc(=[N+]5CCCC5)ccc-4nc3c2c1`, the absorption maximum amounted to 576 nm (in CC#N), 570 nm (in CCO), 588 nm (in ClCCl) and 556 nm (in O).

For the setting “in ClC(Cl)Cl”, `CCOC(=O)/C=C/C1=C(c2ccc(C)cc2)C2=Nc3c(-c4ccc(C)cc4)cc(-c4ccc(C)cc4)n3[B-](F)(F)[N+]2=C1c1ccc(C)cc1` registered an absorption maximum of 663 nm.

Turning to `Cc1cc2ccc(-c3cccc4cccc(-c5ccc6cc(C)c(=O)oc6c5)c34)cc2oc1=O`, the absorption maximum (in C1CCCCC1) was determined as 324 nm; the absorption maximum (in C1COCCO1) was determined as 324 nm; the absorption maximum (in CC#N) is on record as 326 nm; the absorption maximum (in CCO) was found to be 328 nm; the absorption maximum (in CCOC(C)=O) turned out to be 325 nm; the absorption maximum (in CN(C)C=O) is 326 nm. The absorption maximum is, setting by setting: (in CO) 328 nm; (in c1ccccc1) 324 nm.

Consider `CC1=C(c2ccccc2)Oc2cc3nc4ccccc4nc3c3cccc1c23`, for which, where the note is “in ClCCl”, the absorption maximum was 495 nm.

On to `[C-]#[N+]c1ccc(-c2ccc(N)cc2)cc1`, for which the absorption maximum is, setting by setting: (in C1CCCCC1) 302 nm; (in C1CCOC1) 319 nm; (in C1COCCO1) 315 nm; (in CC#N) 310 nm; (in CC(C)=O) 329 nm; (in CCCCCC) 301 nm. Besides, the absorption maximum reads like this: (in CCOC(C)=O) 315 nm; (in CN(C)C=O) 314 nm; (in CO) 308 nm; (in CS(C)=O) 318 nm; (in Cc1ccccc1) 310 nm; (in ClC(Cl)Cl) 305 nm. For the same compound, the absorption maximum reads like this: (in ClCCl) 307 nm; (in O) 298 nm; (in c1ccncc1) 325 nm.

With `CCn1c2ccccc2c2cc(-c3cc(-c4ccc5c(c4)c4ccccc4n5CC)nc(-c4ccc(OC)cc4)n3)ccc21`, the absorption maximum runs as follows: (in C1CCOC1) 365 nm; (in CCOC(C)=O) 362 nm; (in CN(C)C=O) 369 nm; (in Cc1ccccc1) 363 nm; (in ClCCl) 364 nm.

On to `COC(=O)C1=C(C(=O)OC)C2(c3cc(Cl)ccc3-c3c(Cl)cc(Cl)cc32)C2(/C=C/c3ccccc3)c3cc(OC)c(OC)cc3CCN12` (stereo not given), for which the absorption maximum (in ClCCl) is given as 327 nm.

`CC1(C)c2ccccc2N(c2ccc(-c3ccc(C#N)cc3)cc2)c2ccccc21` registered an absorption maximum (in Cc1ccccc1) of 358 nm.

Source of the values: the Deep4Chem optical property database.
